Patent US20190343908A1, “Therapeutic Combination for the Treatment of Cancer” (Nerium Biotechnology Inc., priority 2011, published 2019)

Assays:
[1] = tested on: MDA-MB 231 (human breast cancer); test: Sulforhodamine B viability assay, MDA-MB 231; assay type: cell-based; details: for SRB 24 h / SRB 48 h / SRB 72 h: Run 3 average
Excerpt: (§1) Three different viability assays were chosen to complement each other and yielded results dependent on concentration and cell line: the Methyl Tetrazolium dye assay, the Sulforhodamine B fluorescent dye assay, and the Crystal Violet dye assay.
(§2) The Sulforhodamine B and Crystal Violet assays provide information about protein and were used to complement the Methyl-Tetrazolium dye assay. […] It is used for the quantification of cellular proteins of cultured cells. The assay using Crystal Violet, a dye that binds electrostatically to proteins and stains DNA, provides a reliable, simple assay for measuring viability of cells.
(§3) The Methyl Tetrazolium, Sulforhodamine B, and Crystal Violet assays were used to assess cell viabilities. The incubation times were 24 hours, 48 hours, and 72 hours. The Nerium oleander extract Anvirzel™ (a hot water extract of oleander obtained from Salud Integral, Honduras) was tested in concentrations ranging from 0.01 ng/mL to 10 ng/mL.
(§4) Cells were detached by trypsinization (Trypsin-0.25% EDTA, Invitrogen, 25200-072) during the logarithmic phase of culture growth and plated in 96-well plates (18.000 cells/well) (Corning, Costar 359) in a final volume of 200 μl of medium per well. […] The absorbance was measured after 24 hours, 48 hours, and 72 hours of incubation.
(§5) For the Sulforhodamine B assay, 96-well plates were fixed by 10% trichloroacetic acid (Fluka, 91228) and were incubated at 4° C. for 1 hour. Afterwards, plates were rinsed with water and cells were stained with 0.4% Sulforhodamine B (Sigma, 341738), dissolved in 1% acetic acid (Carlo Ebra, 401422) for 15 minutes at room temperature (RT). The unbound stain was washed twice with 1% acetic acid. Finally, 10 mM Tris Buffer pH 10.5 (Sigma, T6791) was added to dissolve the dye.
(§6) The optical density of each plate was measured on a μQuant spectrophotometer and the data were analyzed with Gen5 software (μQuant Biomolecular Spectrophotometer MQX200 and Gen5™ Microplate Data Collection & Analysis software, BioTek® Instruments. Inc, April 2008). Absorbance was measured at 570 nm for all assays and a second wavelength was measured in order to subtract noise. For the Methyl-Tetrazolium assay this second wavelength was 630 nm and for the Sulforhodamine B and Crystal Violet assays it was 690 nm.

[2] = tested on: HCT-15 (colorectal cancer); test: Sulforhodamine B viability assay, HCT-15; assay type: cell-based, human; parameters: key to SRB Average: absorbance (optical density) at 570 nm, second wavelength subtracted; details: for SRB Average 24 h / SRB Average 48 h / SRB Average 72 h: HCT-15, Run 1
Excerpt: as §1, §2, §3, §4, §5, §6

N.N.[Cl][Pt][Cl] [cisplatin]
SRB 24 h Average ([1]; Run 1, 0.1 μg/ml CDDP): 1.792
SRB 48 h Average ([1]; Run 1, 0.1 μg/ml CDDP): 2.678
SRB 72 h Average ([1]; Run 1, 0.1 μg/ml CDDP): 2.873
SRB 24 h Average ([1]; Run 1, 1 μg/ml CDDP): 1.395
SRB 48 h Average ([1]; Run 1, 1 μg/ml CDDP): 2.254
SRB 72 h Average ([1]; Run 1, 1 μg/ml CDDP): 2.928
SRB 24 h Average ([1]; Run 1, 10 μg/ml CDDP): 1.785
SRB 48 h Average ([1]; Run 1, 10 μg/ml CDDP): 2.489
SRB 72 h Average ([1]; Run 1, 10 μg/ml CDDP): 2.962
SRB 24 h Average ([1]; Run 1, 100 μg/ml CDDP): 1.752
SRB 48 h Average ([1]; Run 1, 100 μg/ml CDDP): 2.457
SRB 72 h Average ([1]; Run 1, 100 μg/ml CDDP): 2.852
SRB 24 h Average ([1]; Run 2, 0.1 μg/ml CDDP): 1.576
SRB 48 h Average ([1]; Run 2, 0.1 μg/ml CDDP): 1.83
SRB 72 h Average ([1]; Run 2, 0.1 μg/ml CDDP): 2.1
SRB 24 h Average ([1]; Run 2, 1 μg/ml CDDP): 1.27
SRB 48 h Average ([1]; Run 2, 1 μg/ml CDDP): 1.162
SRB 72 h Average ([1]; Run 2, 1 μg/ml CDDP): 0.883
SRB 24 h Average ([1]; Run 2, 10 μg/ml CDDP): 1.598
SRB 48 h Average ([1]; Run 2, 10 μg/ml CDDP): 1.867
SRB 72 h Average ([1]; Run 2, 10 μg/ml CDDP): 1.755
SRB 24 h Average ([1]; Run 2, 100 μg/ml CDDP): 1.509
SRB 48 h Average ([1]; Run 2, 100 μg/ml CDDP): 1.048
SRB 72 h Average ([1]; Run 2, 100 μg/ml CDDP): 1.004
SRB 24 h ([1]; 0.1 μg/ml CDDP): 2.643
SRB 48 h ([1]; 0.1 μg/ml CDDP): 2.742
SRB 72 h ([1]; 0.1 μg/ml CDDP): 2.87
SRB 24 h ([1]; 1 μg/ml CDDP): 1.382
SRB 48 h ([1]; 1 μg/ml CDDP): 1.537
SRB 72 h ([1]; 1 μg/ml CDDP): 2.07
SRB 24 h ([1]; 10 μg/ml CDDP): 2.134
SRB 48 h ([1]; 10 μg/ml CDDP): 2.364
SRB 72 h ([1]; 10 μg/ml CDDP): 2.593
SRB 24 h ([1]; 100 μg/ml CDDP): 1.141
SRB 48 h ([1]; 100 μg/ml CDDP): 1.464
SRB 72 h ([1]; 100 μg/ml CDDP): 1.493
SRB Average 24 h ([2]; 0.1 μg/ml CDDP): 2.592
SRB Average 48 h ([2]; 0.1 μg/ml CDDP): 2.747
SRB Average 72 h ([2]; 0.1 μg/ml CDDP): 2.792
SRB Average 24 h ([2]; 1 μg/ml CDDP): 1.974
SRB Average 48 h ([2]; 1 μg/ml CDDP): 2.397
SRB Average 72 h ([2]; 1 μg/ml CDDP): 1.697
SRB Average 24 h ([2]; 10 μg/ml CDDP): 1.657
SRB Average 48 h ([2]; 10 μg/ml CDDP): 2.449
SRB Average 72 h ([2]; 10 μg/ml CDDP): 1.71
SRB Average 24 h ([2]; 100 μg/ml CDDP): 1.854
SRB Average 48 h ([2]; 100 μg/ml CDDP): 1.937
SRB Average 72 h ([2]; 100 μg/ml CDDP): 1.634
SRB Average ([2]; Run 2, 24 h, 0.1 μg/ml CDDP): 2.271
SRB Average ([2]; Run 2, 24 h, 1 μg/ml CDDP): 1.762
SRB Average ([2]; Run 2, 24 h, 10 μg/ml CDDP): 2.09
SRB Average ([2]; Run 2, 24 h, 100 μg/ml CDDP): 1.78
SRB Average ([2]; Run 2, 48 h, 0.1 μg/ml CDDP): 2.54
SRB Average ([2]; Run 2, 48 h, 1 μg/ml CDDP): 2.198
SRB Average ([2]; Run 2, 48 h, 10 μg/ml CDDP): 2.456
SRB Average ([2]; Run 2, 48 h, 100 μg/ml CDDP): 2.169
SRB Average ([2]; Run 2, 72 h, 0.1 μg/ml CDDP): 2.797
SRB Average ([2]; Run 2, 72 h, 1 μg/ml CDDP): 2.068
SRB Average ([2]; Run 2, 72 h, 10 μg/ml CDDP): 1.85
SRB Average ([2]; Run 2, 72 h, 100 μg/ml CDDP): 1.585
SRB Average ([2]; Run 3, 24 h, 0.1 μg/ml CDDP): 2.578
SRB Average ([2]; Run 3, 24 h, 1 μg/ml CDDP): 1.713
SRB Average ([2]; Run 3, 24 h, 10 μg/ml CDDP): 1.941
SRB Average ([2]; Run 3, 24 h, 100 μg/ml CDDP): 1.254
SRB Average ([2]; Run 3, 48 h, 0.1 μg/ml CDDP): 2.768
SRB Average ([2]; Run 3, 48 h, 1 μg/ml CDDP): 1.845
SRB Average ([2]; Run 3, 48 h, 10 μg/ml CDDP): 2.104
SRB Average ([2]; Run 3, 48 h, 100 μg/ml CDDP): 1.77
SRB Average ([2]; Run 3, 72 h, 0.1 μg/ml CDDP): 2.96
SRB Average ([2]; Run 3, 72 h, 1 μg/ml CDDP): 1.752
SRB Average ([2]; Run 3, 72 h, 10 μg/ml CDDP): 2.063
SRB Average ([2]; Run 3, 72 h, 100 μg/ml CDDP): 1.935
